Columns and labels:
Aurora A = molecular target: T1, Aurora A (Homo sapiens, UniProt O14965); assay: Aurora A enzyme inhibition (time-resolved fluorescence, STK substrate-2); type: biochemical; details: 1 mM ATP
T1 sequence (O14965 1-403): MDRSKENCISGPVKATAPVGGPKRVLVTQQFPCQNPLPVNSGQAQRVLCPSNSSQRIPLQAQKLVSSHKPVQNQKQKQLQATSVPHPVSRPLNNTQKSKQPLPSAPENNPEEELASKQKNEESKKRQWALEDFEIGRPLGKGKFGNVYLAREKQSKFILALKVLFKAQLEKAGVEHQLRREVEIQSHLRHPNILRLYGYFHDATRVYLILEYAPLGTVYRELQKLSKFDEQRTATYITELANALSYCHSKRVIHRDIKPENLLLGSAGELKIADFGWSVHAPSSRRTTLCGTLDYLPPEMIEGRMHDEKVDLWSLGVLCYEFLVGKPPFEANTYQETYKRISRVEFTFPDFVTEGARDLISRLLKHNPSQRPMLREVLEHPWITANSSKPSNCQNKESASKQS
How it was run: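 Phosphorylation of biotinylated STK substrate-2 at 1 mM ATP, 1 h, Hepes buffer pH 7.4 (MgCl2, sodium orthovanadate, Triton X-100). After EDTA quench, 665/615 nm time-resolved fluorescence ratio read via europium anti-phospho antibody and SA-XL665; IC50 from exponential fit versus inhibitor concentration.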

Aurora B = molecular target: T2, Aurora B (Homo sapiens, UniProt Q96GD4); assay: Aurora B enzyme inhibition (time-resolved fluorescence, histone H3 peptide); type: biochemical; details: 1 mM ATP
T2 construct: Active Aurora B enzyme (recombinant residues 1-344)
T2 sequence (Q96GD4 whole entry, the tested form may be a part): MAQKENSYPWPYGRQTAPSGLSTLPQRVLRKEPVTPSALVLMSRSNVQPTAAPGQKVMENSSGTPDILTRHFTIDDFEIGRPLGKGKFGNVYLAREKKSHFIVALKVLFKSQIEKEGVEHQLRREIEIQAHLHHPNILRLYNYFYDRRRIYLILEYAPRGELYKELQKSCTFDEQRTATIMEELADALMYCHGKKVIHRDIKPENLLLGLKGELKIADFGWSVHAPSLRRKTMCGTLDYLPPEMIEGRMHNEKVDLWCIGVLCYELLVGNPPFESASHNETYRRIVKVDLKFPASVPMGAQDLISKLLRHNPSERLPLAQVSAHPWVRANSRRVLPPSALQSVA
T2 sequence (Q9NQS7 826-918 partner limits assumed): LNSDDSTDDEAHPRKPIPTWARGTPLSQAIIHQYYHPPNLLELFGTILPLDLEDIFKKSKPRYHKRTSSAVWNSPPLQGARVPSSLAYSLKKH
How it was run: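 IC50s came from an exponential fit of inhibition against inhibitor concentration, with phosphorylation read as the 665/615 nm time-resolved fluorescence ratio after EDTA stop using Eu-anti-phospho-H3 and SA-APC. The 1 h reaction used Aurora B 1-344 plus GST-INCENP, biotin-histone H3 1-21 peptide and 1 mM ATP in pH 7.4 HEPES buffer.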

KDR [1] = molecular target: T3, KDR (Homo sapiens, UniProt P35968); assay: KDR HTRF in vitro kinase assay; type: biochemical; design: purified enzyme (His6-KDR 789-1354, MW 63 kD); His6 (N); details: 1 mM ATP; read-out: KDR enzyme inhibition data (Ki)
How it was run: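 His6-KDR 789-1354 (7 ng/well) with 0.5 μM biotinylated peptide substrate and 1 mM ATP in HEPES pH 7.1, MgCl2/MnCl2, 60 min at room temperature. EDTA-quenched, detected by streptavidin-XL-665 plus Eu-kryptate anti-phosphotyrosine HTRF after 3 h; IC50 from 620/665 nm ratio.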
Target sequence in this assay (P35968 789-1354): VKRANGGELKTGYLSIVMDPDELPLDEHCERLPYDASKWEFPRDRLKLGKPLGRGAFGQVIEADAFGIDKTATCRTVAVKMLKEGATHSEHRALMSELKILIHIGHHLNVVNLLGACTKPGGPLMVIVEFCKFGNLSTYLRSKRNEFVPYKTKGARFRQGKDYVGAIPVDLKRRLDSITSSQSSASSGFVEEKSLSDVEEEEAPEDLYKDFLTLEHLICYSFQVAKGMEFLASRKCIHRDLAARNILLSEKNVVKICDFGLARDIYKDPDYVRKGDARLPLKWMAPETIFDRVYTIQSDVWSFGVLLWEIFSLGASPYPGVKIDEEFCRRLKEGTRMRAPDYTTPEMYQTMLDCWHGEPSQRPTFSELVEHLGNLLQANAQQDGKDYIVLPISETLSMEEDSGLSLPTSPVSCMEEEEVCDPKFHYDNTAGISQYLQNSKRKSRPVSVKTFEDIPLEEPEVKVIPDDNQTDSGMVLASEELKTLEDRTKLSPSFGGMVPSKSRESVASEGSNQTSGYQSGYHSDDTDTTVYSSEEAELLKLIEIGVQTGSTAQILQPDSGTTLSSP

NCI-H1299 cells = assay: Induction of polyploidy in H1299; type: cell-based, Human; details: NCI-H1299, 48 hours
Protocol: To determine the induction of polyploidy in H1299 cells, NCI-H1299 were seeded (4K/well) into 96-well culture plates (tissue culture grade, black, flat-clear bottom) and incubated overnight to produce cell-to-plate adherence. Inhibitors at varying concentrations were added into duplicate wells containing cells and culture media (RPMI 1640, 10% fetal calf serum) and incubated at 37 C for 48 hours. The plates were then washed with PBS and the adherent cells fixed by incubating with 3% formalin for 1 hour. After washing four times with PBS, the cells were then stained with Hoechst and subjected to fluorescent (360 i/460e) microscopic high content analysis to determine the effect of inhibitors on nuclear size. Polyploid cells (≧4N) were defined as those having nuclear area>750μ^2. Potency was expressed as the concentration of inhibitor necessary to induce polyploidy in 15% of cells (EC15) and was calculated from least squares analysis of the log dose-response.

KDR [2] = molecular target: T3, KDR; assay: KDR cellular assay (KDR receptor phosphorylation ELISA); type: cell-based; design: expressed in transfected cells; host or cells: 3T3 (embryonic mouse) cells; details: KDR transfected 3T3 (embryonic mouse) cells, VEGF stimulated; read-out: IC50 inhibition of KDR phosphorylation
How it was run: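 Phospho-KDR measured by capture ELISA (anti-KDR coat, biotinylated detection, streptavidin-HRP, 450 nm) in lysates of KDR-expressing 3T3 mouse fibroblasts. Cells saw compound 20 min at 37° C before 10 min VEGF challenge (100 ng/ml solution); IC50 from non-linear regression of half-log dose series.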
Target sequence in this assay (P35968 20-1356): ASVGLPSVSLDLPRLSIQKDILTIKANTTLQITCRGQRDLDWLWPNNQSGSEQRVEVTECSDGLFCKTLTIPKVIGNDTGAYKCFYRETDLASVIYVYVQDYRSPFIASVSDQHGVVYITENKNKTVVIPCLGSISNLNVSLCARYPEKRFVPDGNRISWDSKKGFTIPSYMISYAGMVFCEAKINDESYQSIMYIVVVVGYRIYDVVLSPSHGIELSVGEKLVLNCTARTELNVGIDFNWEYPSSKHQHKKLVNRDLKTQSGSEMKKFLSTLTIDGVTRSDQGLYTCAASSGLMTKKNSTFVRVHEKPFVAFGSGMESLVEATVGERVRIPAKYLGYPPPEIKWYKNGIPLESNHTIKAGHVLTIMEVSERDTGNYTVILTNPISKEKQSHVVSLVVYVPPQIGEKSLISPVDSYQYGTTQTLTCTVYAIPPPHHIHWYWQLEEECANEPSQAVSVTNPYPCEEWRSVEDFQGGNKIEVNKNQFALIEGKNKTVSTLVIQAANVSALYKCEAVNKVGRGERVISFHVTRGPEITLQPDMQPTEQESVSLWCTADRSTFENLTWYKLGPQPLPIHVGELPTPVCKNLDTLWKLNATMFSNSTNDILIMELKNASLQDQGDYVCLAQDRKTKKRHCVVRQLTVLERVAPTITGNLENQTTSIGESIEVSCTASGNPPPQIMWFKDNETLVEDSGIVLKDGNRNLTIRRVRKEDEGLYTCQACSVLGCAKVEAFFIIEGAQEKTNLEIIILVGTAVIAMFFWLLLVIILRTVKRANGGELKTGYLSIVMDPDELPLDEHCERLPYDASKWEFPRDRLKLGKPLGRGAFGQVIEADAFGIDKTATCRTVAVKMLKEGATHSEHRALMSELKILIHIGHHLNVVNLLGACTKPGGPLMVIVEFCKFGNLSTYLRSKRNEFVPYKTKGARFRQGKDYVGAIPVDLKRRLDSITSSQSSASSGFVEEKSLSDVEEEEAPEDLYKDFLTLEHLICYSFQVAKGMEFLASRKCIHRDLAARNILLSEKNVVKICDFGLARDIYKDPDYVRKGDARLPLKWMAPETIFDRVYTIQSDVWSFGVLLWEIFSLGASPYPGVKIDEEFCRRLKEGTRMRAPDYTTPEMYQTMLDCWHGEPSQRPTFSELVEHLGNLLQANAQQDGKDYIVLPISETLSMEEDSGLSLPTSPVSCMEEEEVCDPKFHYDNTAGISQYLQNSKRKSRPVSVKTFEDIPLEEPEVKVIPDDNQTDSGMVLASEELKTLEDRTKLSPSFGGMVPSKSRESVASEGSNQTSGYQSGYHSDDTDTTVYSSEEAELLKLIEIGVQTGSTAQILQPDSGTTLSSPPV

Ki (Aurora A)	Ki (Aurora B)	Ki (KDR [1])	IC50 (KDR [2])	Compound	EC15 (NCI-H1299 cells; Homo sapiens, read-out: EC15 (concentration of inhibitor necessary to induce polyploidy in 15% of cells))	EC15 (concentration of inhibitor necessary to induce polyploidy in 15% of cells) (NCI-H1299 cells)
1000 to 5000 nM	100 to 1000 nM	> 5000 nM	–	Cn1cc(Nc2nccc(NC3C4C=CC(C4)C3C(N)=O)n2)cn1 (mixture of isomers) [Example 2, (1S,2S,3R,4R)-3-({2-[(1-methyl-1H-pyrazol-4-yl)amino]pyrimidin-4-yl}amino)bicyclo[2.2.1]hept-5-ene-2-carboxamide and (1R,2R,3S,4S)-3-({2-[(1-methyl-1H-pyrazol-4-yl)amino]pyrimidin-4-yl}amino)bicyclo[2.2.1]hept-5-ene-2-carboxamide]	< 0.1 µM	–
100 to 1000 nM	< 100 nM	100 to 1000 nM	–	NC(=O)[C@@H]1[C@H](Nc2nc(Nc3cn[nH]c3)ncc2F)[C@H]2C=C[C@@H]1C2.NC(=O)[C@H]1[C@@H](Nc2nc(Nc3cn[nH]c3)ncc2F)[C@@H]2C=C[C@H]1C2 (mixture of isomers) [Example 5, (1S,2S,3R,4R)-3-{[5-fluoro-2-(1H-pyrazol-4-ylamino)pyrimidin-4-yl]amino}bicyclo[2.2.1]hept-5-ene-2-carboxamide and (1R,2R,3S,4S)-3-{[5-fluoro-2-(1H-pyrazol-4-ylamino)pyrimidin-4-yl]amino}bicyclo[2.2.1]hept-5-ene-2-carboxamide]	–	B (“B” represents an EC15 of between 0.1 μM and 1 μM)
< 100 nM	< 100 nM	100 to 1000 nM	–	CCn1cc(Nc2ncc(F)c(N[C@@H]3[C@H](C(N)=O)[C@H]4C=C[C@@H]3C4)n2)cn1.CCn1cc(Nc2ncc(F)c(N[C@H]3[C@@H](C(N)=O)[C@@H]4C=C[C@H]3C4)n2)cn1 (mixture of isomers) [Example 8, (1S,2S,3R,4R)-3-({2-[(1-ethyl-1H-pyrazol-4-yl)amino]-5-fluoropyrimidin-4-yl}amino)bicyclo[2.2.1]hept-5-ene-2-carboxamide and (1R,2R,3S,4S)-3-({2-[(1-ethyl-1H-pyrazol-4-yl)amino]-5-fluoropyrimidin-4-yl}amino)bicyclo[2.2.1]hept-5-ene-2-carboxamide]	–	A (“A” represents an EC15 of less than 0.1 μM)
100 to 1000 nM	< 100 nM	> 5000 nM	–	CNC(=O)[C@@H]1[C@H](Nc2nc(Nc3cnn(C)c3)ncc2F)[C@H]2C=C[C@@H]1C2.CNC(=O)[C@H]1[C@@H](Nc2nc(Nc3cnn(C)c3)ncc2F)[C@@H]2C=C[C@H]1C2 (mixture of isomers) [Example 9, (1S,2S,3R,4R)-3-({5-fluoro-2-[(1-methyl-1H-pyrazol-4-yl)amino]pyrimidin-4-yl}amino)-N-methylbicyclo[2.2.1]hept-5-ene-2-carboxamide and (1R,2R,3S,4S)-3-({5-fluoro-2-[(1-methyl-1H-pyrazol-4-yl)amino]pyrimidin-4-yl}amino)-N-methylbicyclo[2.2.1]hept-5-ene-2-carboxamide]	–	A (“A” represents an EC15 of less than 0.1 μM)
< 100 nM	< 100 nM	100 to 1000 nM	–	NC(=O)[C@@H]1[C@H](Nc2nc(Nc3cnn(CCO)c3)ncc2F)[C@H]2C=C[C@@H]1C2.NC(=O)[C@H]1[C@@H](Nc2nc(Nc3cnn(CCO)c3)ncc2F)[C@@H]2C=C[C@H]1C2 (mixture of isomers) [Example 11, (1S,2S,3R,4R)-3-[(5-fluoro-2-{[1-(2-hydroxyethyl)-1H-pyrazol-4-yl]amino}pyrimidin-4-yl)amino]bicyclo[2.2.1]hept-5-ene-2-carboxamide and (1R,2R,3S,4S)-3-[(5-fluoro-2-{[1-(2-hydroxyethyl)-1H-pyrazol-4-yl]amino}pyrimidin-4-yl)amino]bicyclo[2.2.1]hept-5-ene-2-carboxamide]	–	A (“A” represents an EC15 of less than 0.1 μM)
100 to 1000 nM	< 100 nM	100 to 1000 nM	–	Cn1cc(Nc2ncc(F)c(N[C@@H]3[C@H]4CC[C@H](C4)[C@@H]3C(N)=O)n2)cn1.Cn1cc(Nc2ncc(F)c(N[C@H]3[C@@H]4CC[C@@H](C4)[C@H]3C(N)=O)n2)cn1 (mixture of isomers) [Example 12, (1R,2S,3R,4S)-3-({5-fluoro-2-[(1-methyl-1H-pyrazol-4-yl)amino]pyrimidin-4-yl}amino)bicyclo[2.2.1]heptane-2-carboxamide and (1S,2R,3S,4R)-3-({5-fluoro-2-[(1-methyl-1H-pyrazol-4-yl)amino]pyrimidin-4-yl}amino)bicyclo[2.2.1]heptane-2-carboxamide]	–	B (“B” represents an EC15 of between 0.1 μM and 1 μM)
< 100 nM	< 100 nM	100 to 1000 nM	–	CCn1cc(Nc2ncc(F)c(N[C@@H]3[C@H]4CC[C@H](C4)[C@@H]3C(N)=O)n2)cn1.CCn1cc(Nc2ncc(F)c(N[C@H]3[C@@H]4CC[C@@H](C4)[C@H]3C(N)=O)n2)cn1 (mixture of isomers) [Example 13, (1R,2S,3R,4S)-3-({2-[(1-ethyl-1H-pyrazol-4-yl)amino]-5-fluoropyrimidin-4-yl}amino)bicyclo[2.2.1]heptane-2-carboxamide and (1S,2R,3S,4R)-3-({2-[(1-ethyl-1H-pyrazol-4-yl)amino]-5-fluoropyrimidin-4-yl}amino)bicyclo[2.2.1]heptane-2-carboxamide]	–	B (“B” represents an EC15 of between 0.1 μM and 1 μM)
< 100 nM	< 100 nM	< 100 nM	100 to 1000 nM	CC1(C)[C@H]2C[C@H](C(N)=O)[C@H](Nc3nc(Nc4cnn(CCc5ccccc5)c4)ncc3Cl)[C@@H]1C2 [Example 188, (1R,2R,3S,5R)-2-[(5-chloro-2-{[1-(2-phenylethyl)-1H-pyrazol-4-yl]amino}pyrimidin-4-yl)amino]-6,6-dimethylbicyclo[3.1.1]heptane-3-carboxamide]	–	–
< 100 nM	< 100 nM	< 100 nM	100 to 1000 nM	CC1(C)[C@H]2C[C@H](C(N)=O)[C@H](Nc3nc(Nc4cnn(-c5ccccc5)c4)ncc3Cl)[C@@H]1C2 [Example 189, (1R,2R,3S,5R)-2-({5-chloro-2-[(1-phenyl-1H-pyrazol-4-yl)amino]pyrimidin-4-yl}amino)-6,6-dimethylbicyclo[3.1.1]heptane-3-carboxamide]	–	–
100 to 1000 nM	< 100 nM	100 to 1000 nM	100 to 1000 nM	CN1CCN(CCn2cc(Nc3ncc(Cl)c(N[C@H]4[C@@H](C(N)=O)C[C@H]5C[C@@H]4C5(C)C)n3)cn2)CC1 [Example 190, (1R,2R,3S,5R)-2-{[5-chloro-2-({1-[2-(4-methylpiperazin-1-yl)ethyl]-1H-pyrazol-4-yl}amino)pyrimidin-4-yl]amino}-6,6-dimethylbicyclo[3.1.1]heptane-3-carboxamide]	–	–
< 100 nM	< 100 nM	< 100 nM	100 to 1000 nM	CC1(C)[C@H]2C[C@H](C(N)=O)[C@H](Nc3nc(Nc4cnn(C5CCNCC5)c4)ncc3Cl)[C@@H]1C2 [Example 191, (1R,2R,3S,5R)-2-[(5-chloro-2-{[1-(piperidin-4-yl)-1H-pyrazol-4-yl]amino}pyrimidin-4-yl)amino]-6,6-dimethylbicyclo[3.1.1]heptane-3-carboxamide]	–	–
< 100 nM	< 100 nM	< 100 nM	< 100 nM	(1S,2S,3R,4R)-3-[(5-bromo-2-{[1-(3-fluoro-4-methoxybenzyl)-1H-pyrazol-4-yl]amino}pyrimidin-4-yl)amino]bicyclo[2.2.1]hept-5-ene-2-carboxamide [Example 193]	–	–

From patent US8426408B2, “Pyrimidine inhibitors of kinases” (AbbVie Inc., priority 2009, dated 2013)
